IC50 data for 32 compounds are collected here from patent US7932270B2 (Cytokinetics, Inc., priority 2006, dated 2011).

A word on the IC50: it is the concentration needed to halve the response being measured.

T1 sequence (P02607 2-151): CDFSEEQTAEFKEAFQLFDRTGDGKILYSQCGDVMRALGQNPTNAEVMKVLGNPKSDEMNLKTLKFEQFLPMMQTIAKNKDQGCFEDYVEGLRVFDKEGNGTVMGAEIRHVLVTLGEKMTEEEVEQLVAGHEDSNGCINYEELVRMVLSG
T1 sequence (P10587 84-789): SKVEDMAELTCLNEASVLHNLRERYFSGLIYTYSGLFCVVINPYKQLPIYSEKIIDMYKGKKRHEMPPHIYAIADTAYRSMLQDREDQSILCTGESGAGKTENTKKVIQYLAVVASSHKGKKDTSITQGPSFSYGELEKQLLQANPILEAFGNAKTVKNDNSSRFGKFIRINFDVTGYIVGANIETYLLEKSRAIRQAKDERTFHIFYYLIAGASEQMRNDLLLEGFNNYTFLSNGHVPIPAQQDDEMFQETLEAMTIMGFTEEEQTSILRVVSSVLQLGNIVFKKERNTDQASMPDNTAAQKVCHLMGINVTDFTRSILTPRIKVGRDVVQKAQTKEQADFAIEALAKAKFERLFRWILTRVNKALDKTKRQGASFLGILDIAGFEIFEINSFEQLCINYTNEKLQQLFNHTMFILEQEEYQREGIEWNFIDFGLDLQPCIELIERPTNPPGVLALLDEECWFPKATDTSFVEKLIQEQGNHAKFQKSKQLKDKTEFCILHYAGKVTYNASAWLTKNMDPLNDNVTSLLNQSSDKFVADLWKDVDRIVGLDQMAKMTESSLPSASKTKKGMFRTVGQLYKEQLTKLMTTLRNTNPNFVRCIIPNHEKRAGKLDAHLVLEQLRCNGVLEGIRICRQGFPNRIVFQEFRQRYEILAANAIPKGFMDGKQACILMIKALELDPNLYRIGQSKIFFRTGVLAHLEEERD

The assay has as its target T1, chicken gizzard smooth muscle myosin subfragment-1 chemically crosslinked to cardiac or skeletal actin (Gallus gallus, UniProt P10587).
T1 construct: chicken gizzard smooth muscle myosin subfragment-1; from tissue; host or cells: chicken gizzard
Description: Smooth muscle myosin ATPase dose response assay (pyruvate kinase/horseradish peroxidase/pyruvate oxidase-coupled, amplex red fluorescence). The following applies: read-out: IC50 Arithmetic Mean. Type of assay: biochemical. In short, it runs like this:
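Lead-optimization format: ATPase coupled via pyruvate kinase, pyruvate oxidase and peroxidase, pH 7.00 at 22° C, with 0.15 mM ATP, 100 mM KCl, 2 mM MgCl2, 2 mM phosphate and 0.1 mM amplex red (final). Crosslinked S1 titrated empirically for set hydrolysis rate; fluorescence (ex 480/em 615 nm) dose curves fit 4-parameter for IC50.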
`CN(C)C(=NCc1cncc(CNC(=O)c2ccc(-c3ccccc3C#N)nc2NCCc2cccc(F)c2)c1)N(C)C` [N-({5-[3,3-bis(dimethylamino)-2-azaprop-2-enyl](3-pyridyl)}methyl)(6-(2-cyanophenyl)-2-{[2-(3-fluorophenyl)ethyl]amino}(3-pyridyl))carboxamide]: the IC50 came to 2720 nM. In the case of `N#Cc1ccccc1-c1ccc(C(=O)NC[C@H]2CCC(=O)N2CCCCN2C(=O)c3ccccc3C2=O)c(NCCc2cccc(F)c2)n1` [N-({(2R)-1-[4-(1,3-dioxobenzo[c]azolin-2-yl)butyl]-5-oxopyrrolidin-2-yl}methyl)(6-(2-cyanophenyl)-2-{[2-(3-fluorophenyl)ethyl]amino}(3-pyridyl))carboxamide], the 50% inhibitory concentration (IC50) is 376 nM. For the compound `N#Cc1ccccc1-c1ccc(C(=O)N[C@H](CCCNC(=O)OCc2ccccc2)C(N)=O)c(NCCc2cccc(F)c2)n1` [N-{(4R)-4-carbamoyl-4-[(6-(2-cyanophenyl)-2-{[2-(3-fluorophenyl)ethyl]amino}(3-pyridyl))carbonylamino]butyl}(phenylmethoxy)carboxamide], the IC50 turned out to be 19600 nM. Regarding `O=C(NCc1cccnc1)c1ccc(-c2ccccc2)nc1NCc1ccccc1` [{6-phenyl-2-[benzylamino](3-pyridyl)}-N-(3-pyridylmethyl)carboxamide], the IC50 was 2790 nM. `Cn1cc(-c2ccc(C(=O)NC[C@@H]3CNCC(=O)N3)c(NCCc3cccc(F)c3)n2)cn1` [N-[((2S)-6-oxopiperazin-2-yl)methyl](2-{[2-(3-fluorophenyl)ethyl]amino}-6-(1-methylpyrazol-4-yl)(3-pyridyl))carboxamide]: the IC50 came to 13100 nM. As for `Cn1cc(-c2ccc(C(=O)NC[C@H]3CNCC(=O)N3CCCN)c(NCCc3cccc(F)c3)n2)cn1` [N-{[(2R)-1-(3-aminopropyl)-6-oxopiperazin-2-yl]methyl}(2-{[2-(3-fluorophenyl)ethyl]amino}-6-(1-methylpyrazol-4-yl)(3-pyridyl))carboxamide], the IC50 amounted to 3560 nM. With `CN(C)C(=NCc1cccc(CNC(=O)c2ccc(-c3ccccc3C#N)nc2NCCc2cccc(F)c2)n1)N(C)C` [N-({6-[3,3-bis(dimethylamino)-2-azaprop-2-enyl](2-pyridyl)}methyl)(6-(2-cyanophenyl)-2-{[2-(3-fluorophenyl)ethyl]amino}(3-pyridyl))carboxamide], the IC50 is 285 nM. For `CC(=O)N1CCNC[C@@H]1CNC(=O)c1ccc(-c2ccccc2C#N)nc1NCCc1cccc(F)c1` [N-[((2R)-1-acetylpiperazin-2-yl)methyl](6-(2-cyanophenyl)-2-{[2-(3-fluorophenyl)ethyl]amino}(3-pyridyl))carboxamide], the IC50 came out at 7440 nM.

With `N#Cc1ccccc1-c1ccc(C(=O)NCCc2cccnc2)c(NCCc2cccc(F)c2)n1` [(6-(2-cyanophenyl)-2-{[2-(3-fluorophenyl)ethyl]amino}(3-pyridyl))-N-(2-(3-pyridyl)ethyl)carboxamide], the IC50 was found to be 150 nM. As to `COc1ccccc1-c1ccc(C(=O)NCc2cccnc2)c(NCCc2ccccn2)n1` [{6-(2-methoxyphenyl)-2-[(2-(2-pyridyl)ethyl)amino](3-pyridyl)}-N-(3-pyridylmethyl)carboxamide], the IC50 is 17900 nM. For `Cn1cc(-c2ccc(C(=O)NCc3cccc(CN)n3)c(NCCc3cccc(F)c3)n2)cn1` [N-{[6-(aminomethyl)(2-pyridyl)]methyl}(2-{[2-(3-fluorophenyl)ethyl]amino}-6-(1-methylpyrazol-4-yl)(3-pyridyl))carboxamide] the value was 136 nM. Consider `CC(C)(C)OC(=O)NCCn1ccc(CNC(=O)c2ccc(-c3cc[nH]n3)nc2NCCc2cccc(F)c2)n1` [N-[(1-{2-[(tert-butoxy)carbonylamino]ethyl}pyrazol-3-yl)methyl](2-{[2-(3-fluorophenyl)ethyl]amino}-6-pyrazol-3-yl(3-pyridyl))carboxamide], for which the IC50 stood at 12000 nM.

Turning to `Cc1ccc(-c2ccc(C(=O)NCc3cccnc3)c(NCCc3cccc(F)c3)n2)c(Cl)c1` [(6-(2-chloro-4-methylphenyl)-2-{[2-(3-fluorophenyl)ethyl]amino}(3-pyridyl))-N-(3-pyridylmethyl)carboxamide], the IC50 is 2080 nM. For `CNC(=O)[C@@H](C)NC(=O)c1ccc(-c2ccccc2C#N)nc1NCCc1cccc(F)c1` [(2R)-2-[(6-(2-cyanophenyl)-2-{[2-(3-fluorophenyl)ethyl]amino}(3-pyridyl))carbonylamino]-N-methylpropanamide] the value was 1270 nM; for `Cn1cc(-c2nc(NCCc3cccc(F)c3)c(C(=O)NC[C@H]3CCCN3C(=O)CCCN)cc2Cl)cn1` [N-{[(2R)-1-(4-aminobutanoyl)pyrrolidin-2-yl]methyl}(5-chloro-2-{[2-(3-fluorophenyl)ethyl]amino}-6-(1-methylpyrazol-4-yl)(3-pyridyl))carboxamide], 47 nM. For the compound `NCc1cccc(CNC(=O)c2cc(Br)c(-c3ccccc3)nc2NCCc2cccc(F)c2)n1` [N-{[6-(aminomethyl)(2-pyridyl)]methyl}(5-bromo-2-{[2-(3-fluorophenyl)ethyl]amino}-6-phenyl(3-pyridyl))carboxamide], the IC50 was determined as 604 nM. In the case of `N#Cc1ccccc1-c1ccc(C(=O)NCc2cc(CN)ccn2)c(NCCc2cccc(F)c2)n1` [N-{[4-(aminomethyl)(2-pyridyl)]methyl}(6-(2-cyanophenyl)-2-{[2-(3-fluorophenyl)ethyl]amino}(3-pyridyl))carboxamide], the 50% inhibitory concentration (IC50) was 598 nM. As for `Cn1cc(-c2ccc(C(=O)NC[C@H]3CCCN3C(=O)CCCO)c(NCCc3cccc(F)c3)n2)cn1` [N-{[(2R)-1-(4-hydroxybutanoyl)pyrrolidin-2-yl]methyl}(2-{[2-(3-fluorophenyl)ethyl]amino}-6-(1-methylpyrazol-4-yl)(3-pyridyl))carboxamide], the 50% inhibitory concentration (IC50) amounted to 1460 nM. With `Cc1cc(C(=O)NC[C@H]2CCC(=O)N2CCCN)c(NCCc2cccc(F)c2)nc1-c1cnn(C)c1` [N-{[(2R)-1-(3-aminopropyl)-5-oxopyrrolidin-2-yl]methyl}(2-{[2-(3-fluorophenyl)ethyl]amino}-5-methyl-6-(1-methylpyrazol-4-yl)(3-pyridyl))carboxamide], the IC50 turned out to be 577 nM.

On to `CN1CCN(CCCNC(=O)c2ccc(-c3ccccc3C#N)nc2NCCc2cccc(F)c2)CC1` [(6-(2-cyanophenyl)-2-{[2-(3-fluorophenyl)ethyl]amino}(3-pyridyl))-N-[3-(4-methylpiperazinyl)propyl]carboxamide], for which the IC50 was determined as 3060 nM. On to `COC(=O)[C@@H](N)CNC(=O)c1ccc(-c2ccccc2C#N)nc1NCCc1cccc(F)c1` [methyl (2S)-2-amino-3-[(6-(2-cyanophenyl)-2-{[2-(3-fluorophenyl)ethyl]amino}(3-pyridyl))carbonylamino]propanoate], for which the IC50 is 619 nM. To `NCc1ncccc1CNC(=O)c1cc(F)c(-c2ccccn2)nc1NCCc1cccc(F)c1` [N-{[2-(aminomethyl)(3-pyridyl)]methyl}(5-fluoro-2-{[2-(3-fluorophenyl)ethyl]amino}-6-(2-pyridyl)(3-pyridyl))carboxamide] belongs 66 nM; to `O=C1CNC[C@@H](CNC(=O)c2ccc(-c3cn[nH]c3)nc2NCCc2cccc(F)c2)N1` [N-[((2S)-6-oxopiperazin-2-yl)methyl](2-{[2-(3-fluorophenyl)ethyl]amino}-6-pyrazol-4-yl(3-pyridyl))carboxamide], 16000 nM.

On to `N#Cc1ccccc1-c1ccc(C(=O)NC[C@H]2CCCN2S(=O)(=O)CCN)c(NCCc2cccc(F)c2)n1` [N-({(2R)-1-[(2-aminoethyl)sulfonyl]pyrrolidin-2-yl}methyl)(6-(2-cyanophenyl)-2-{[2-(3-fluorophenyl)ethyl]amino}(3-pyridyl))carboxamide], for which the half-inhibitory concentration (IC50) amounted to 71 nM.

Turning to `CN(C)C(=O)CNC(=O)c1ccc(-c2ccccc2)nc1NCCc1ccccc1` [N,N-dimethyl-2-({6-phenyl-2-[(2-phenylethyl)amino](3-pyridyl)}carbonylamino)acetamide], the IC50 was 30300 nM. For the compound `O=C(NCc1cccnc1)c1ccc(-c2ccccc2F)nc1NCCc1ccccn1` [{6-(2-fluorophenyl)-2-[(2-(2-pyridyl)ethyl)amino](3-pyridyl)}-N-(3-pyridylmethyl)carboxamide], the half-inhibitory concentration (IC50) was 1320 nM.

On to `C[C@H](CNC(=O)c1cc(F)c(-c2cnn(C)c2)nc1NCCc1cccc(F)c1)C(C)(C)O` [N-((2R)-3-hydroxy-2,3-dimethylbutyl)(5-fluoro-2-{[2-(3-fluorophenyl)ethyl]amino}-6-(1-methylpyrazol-4-yl)(3-pyridyl))carboxamide], for which the IC50 worked out at 1230 nM. `Cn1cc(-c2nc(NCCc3cccc(F)c3)c(C(=O)NC[C@H]3CCC(=O)N3)cc2F)cn1` [N-[((2R)-5-oxopyrrolidin-2-yl)methyl](5-fluoro-2-{[2-(3-fluorophenyl)ethyl]amino}-6-(1-methylpyrazol-4-yl)(3-pyridyl))carboxamide]: the IC50 is 27 nM. For `O=C(NCc1ncc[nH]1)c1ccc(-c2ccccc2)nc1NCCc1ccccn1` [N-(imidazol-2-ylmethyl){6-phenyl-2-[(2-(2-pyridyl)ethyl)amino](3-pyridyl)}carboxamide], the IC50 worked out at 6150 nM. In the case of `N#Cc1ccccc1-c1ccc(C(=O)NCC2CCCC(=O)N2)c(NCCc2cccc(F)c2)n1` (centres unmarked) [(6-(2-cyanophenyl)-2-{[2-(3-fluorophenyl)ethyl]amino}(3-pyridyl))-N-[(6-oxo(2-piperidyl))methyl]carboxamide], the IC50 was 29 nM. For `N#Cc1ccccc1-c1ccc(C(=O)NC[C@H]2CCCN2C(=O)CCCN)c(NCCc2ccccc2)n1` [N-{[(2R)-1-(4-aminobutanoyl)pyrrolidin-2-yl]methyl}{6-(2-cyanophenyl)-2-[(2-phenylethyl)amino](3-pyridyl)}carboxamide] the value was 62 nM. For `Cn1cc(-c2nc(NCCc3cccc(F)c3)c(C(=O)NC[C@H]3CCCN3C(=O)CCCO)cc2F)cn1` [N-{[(2R)-1-(4-hydroxybutanoyl)pyrrolidin-2-yl]methyl}(5-fluoro-2-{[2-(3-fluorophenyl)ethyl]amino}-6-(1-methylpyrazol-4-yl)(3-pyridyl))carboxamide], the IC50 stood at 245 nM.
